Assay results as given in patent US20250064813A1, “STABLE LIQUID PHARMACEUTICAL FORMULATION” (GENUV Inc., priority 2022, published 2025).

Assay: In-vial stability, 2 weeks: HPLC content and total impurities
Assay type: physicochemical
Method: The glass vials containing the compositions prepared in Example 4-1 were stored for 2 weeks under the two conditions below, and stability study was performed.
Aliquots of the compositions in the glass vial were taken, and the content of Compound 1 and total impurities were measured with HPLC. Measurements were performed in duplicates, and the average value was reported. Impurities were quantified by percentage area relative to the main Compound 1 peak and based on Relative Response Factor (RRF) of 1.0. As a positive control, the dried powder of Compound 1 was used and tested in the same way.

## CC(=O)Nc1cccc(-n2c(=O)n(C3CC3)c(=O)c3c(Nc4ccc(I)cc4F)n(C)c(=O)c(C)c32)c1 [Compound 1, N-(3-{3-Cyclopropyl-5-[(2-fluoro-4-iodophenyl)amino]-6,8-dimethyl-2,4,7-trioxo-3,4,6,7-tetrahydropyrido[4,3-d]pyrimidin-1 (2H)-yl}phenyl) acetamide]
T = 0
  Compound 1 Content (%): 100.5%
  Total Impurities (%): 0.15%
T = 2w (40° C./75% RH)
  Compound 1 Content (%): 100.3%
  Total Impurities (%): 0.14%
